Among the data in US20230265083A1, “Heterocycle CDK Inhibitors And Their Use Thereof” (Prelude Therapeutics Incorporated, priority 2020, published 2023) are IC50 values, retold here.

The target of one assay is T1, CDK2/Cyclin A2 (Homo sapiens, UniProt P24941).
T1 construct: purchased ProQinase; host or cells: insect cell
Nature of the assay: CDK2/CyclinA2 Enzymatic Activity Assay (TR-FRET). Particulars: ATP 1 mM, recombinant CDK2/Cyclin A2 1 nM, read-out: CDK2_A2 IC50. Type of assay: biochemical. Here is the method: CDK2/CyclinA2 Enzymatic Activity Assay
(§1) The inhibitory activity of compounds was evaluated in vitro using TR-FRET assay with white 384-well low volume microplate (Greiner Bio-One). CDK2/Cyclin A2 catalyzed phosphorylation of peptides in the presence and absence of compounds was measured and used in IC50 determination. Recombinant protein complex CDK2/Cyclin A2, expressed from insect cell, was purchased from ProQinase. Testing compounds were dissolved in DMSO at 1 mM and tested in 9-dose IC50 mode. The reaction mixture was prepared by mixing CDK2/CyclinA2 (1 nM final), ULight-4E-BP1 (50 nM final, Perkinelmer, TRF0128-D), and ATP (1 mM final) in assay buffer (20 mM of HEPES pH 7.4, 1 mM of EGTA, 0.05% BSA, 0.005% Tween 20, and 1 mM TCEP). The compound of interest in DMSO was added to each well in 3-fold serial dilution by the dispenser (TECAN D300E) to make a 9.9 μL of the reaction mixture. After 20 minutes preincubation at room temperature, 0.1 μL MgCl2 (10 mM final) was added to initiate the reaction. Following a 45 minutes incubation at 37° C., the reaction was stopped by addition of 2 μL of quenching buffer consisting of Lance detection buffer (Perkinelmer CR97-100C), LANCE Ultra Europium-anti-P-4E-BP1 (Perkinelmer, TRF0216-D), EDTA, and incubate at room temperature for additional 60 minutes in the dark. The reaction signal was measured by Envision multimode plate reader (PerkinElmer, 2102-0010). IC50 values were determined by fitting the data to the standard 4 parameters with Hill Slope using GraphPad Prism software.
A general note: Time-resolved FRET reads energy transfer from a long-lived donor to a nearby acceptor.

The target of another assay is T2, CDK4/Cyclin D1 (Homo sapiens, UniProt P11802).
T2 construct: purchased ProQinase; host or cells: insect cell
As to the kind of experiment: CDK4/CyclinD1 Enzymatic Activity Assay (TR-FRET). Type of assay: biochemical. Conditions: ATP 2 mM, recombinant CDK4/Cyclin D1 1 nM, read-out: CDK4_D1 IC50. Here is the method: CDK4/CyclinD1 Enzymatic Activity Assay
The inhibitory activity of compounds was evaluated in vitro using TR-FRET assay with white 384-well low volume microplate (Greiner Bio-One). CDK4/Cyclin D1 catalyzed phosphorylation of peptides in the presence and absence of compounds was measured and used in IC50 determination. Recombinant protein complex CDK4/Cyclin D1, expressed from insect cell, was purchased from ProQinase. Testing compounds were dissolved in DMSO at 1 mM and tested in 9-dose IC50 mode. The reaction mixture was prepared by mixing CDK4/CyclinD1 (1 nM final), ULight-4E-BP1 (100 nM final, Perkinelmer, TRF0128-D), and ATP (2 mM final) in assay buffer (20 mM of HEPES pH 7.4, 1 mM of EGTA, 0.05% BSA, 0.005% Tween 20, and 1 mM TCEP). The compound of interest in DMSO was added to each well in 3-fold serial dilution by the dispenser (TECAN D300E) to make a 9.9 μL of the reaction mixture. After 20 minutes of preincubation at room temperature, 0.1 μL MgCl2 (10 mM final) was added to initiate the reaction. Following a 45 minutes incubation at 37° C., the reaction was stopped by the addition of 2 μL of quenching buffer consisting of Lance detection buffer (Perkinelmer CR97-100C), LANCE Ultra Europium-anti-P-4E-BP1 (Perkinelmer, TRF0216-D), EDTA, and incubate at room temperature for additional 60 minutes in the dark. The reaction signal was measured by Envision multimode plate reader (PerkinElmer, 2102-0010). IC50 values were determined by fitting the data to the standard 4 parameters with Hill Slope using GraphPad Prism software.

For a further assay, the target named is T3, CDK9/Cyclin T1 (Homo sapiens, UniProt P50750).
T3 construct: purchased ProQinase; host or cells: insect cell
Nature of the assay: CDK9/CyclinT1 Enzymatic Activity Assay (TR-FRET). Type of assay: biochemical. Particulars: ATP 1 mM, recombinant CDK9/Cyclin T1 1 nM, read-out: CDK9_T1 IC50. On the procedure:
CDK9/CyclinT1 Enzymatic Activity Assay
as §1, with “(Greiner Bio-One). CDK9/Cyclin T1 catalyzed phosphorylation” for “(Greiner Bio-One). CDK2/Cyclin A2 catalyzed phosphorylation”, “protein complex CDK9/Cyclin T1, expressed from” for “protein complex CDK2/Cyclin A2, expressed from”, “by mixing CDK9/CyclinT1 (1 nM” for “by mixing CDK2/CyclinA2 (1 nM”, “20 minutes of preincubation at” for “20 minutes preincubation at”, “stopped by the addition of” for “stopped by addition of”

A further assay deals with H929 cells. As to the kind of experiment: CellTiter-Glo Protocol (Proliferation). Type of assay: cell-based. Conditions: Homo sapiens, NCI-H929, 24 hours, read-out: PROLIFERATION_CTG_H929 IC50. Here is the method:
CellTiter-Glo® Protocol (Proliferation)
Dispense 10 μL aliquot of prepared H929 cells (1:1 ratio of cells: Trypan Blue (#1450013, Bio-Rad)) onto cell counting slide (#145-0011, Bio-Rad) and obtain cell density and cell viability using a cell counter (TC20, Bio-Rad). Remove appropriate volume of resuspended cells from culture flask to accommodate 4000 cells/well at 10 μL/well. Transfer H929 cells to 50 mL conical (#430290, Corning). Spin down at 1000 rpm for 5 min. using a tabletop centrifuge (SPINCHRON 15, Beckman). Discard supernatant and resuspend cell pellet in modified RPMI 1640 (#10-040-CV, Corning) cell culture media containing 10% FBS (F2422-500ML, Sigma), sodium pyruvate (100 mM) (#25-000-CL, Corning), HEPES buffer (1M) (#25-060-CL, Corning) and glucose (200 g/L) (A24940-01, Gibco) to a cell density of 400,000 cells/mL. Dispense 10 μL of resuspended H929 cells per well in 384-well small volume TC treated plate (#784080, Greiner Bio-one) using standard cassette (#50950372, Thermo Scientific) on Multidrop Combi (#5840310, Thermo Scientific) in laminar flow cabinet. Dispense compounds onto plates using a digital liquid dispenser (D300E, Tecan). Incubate plates in humidified tissue culture incubator at 37° C. for 24 hours. Add 10 μL of prepared CellTiTer-Glo® detection buffer (G7570, Promega) to each well of 384-well plate using small tube cassette (#24073295, Thermo Scientific) on Combi multi-drop, incubate at RT for 30-60 min. Read plates with a microplate reader (PheraStar, BMG Labtech) using 384 well luminescence mode. See Table B (Proliferation_CTG_H929).
(In general: ATP-based viability assays read luminescence as a measure of living cells.)

T2 sequence (P11802 whole entry): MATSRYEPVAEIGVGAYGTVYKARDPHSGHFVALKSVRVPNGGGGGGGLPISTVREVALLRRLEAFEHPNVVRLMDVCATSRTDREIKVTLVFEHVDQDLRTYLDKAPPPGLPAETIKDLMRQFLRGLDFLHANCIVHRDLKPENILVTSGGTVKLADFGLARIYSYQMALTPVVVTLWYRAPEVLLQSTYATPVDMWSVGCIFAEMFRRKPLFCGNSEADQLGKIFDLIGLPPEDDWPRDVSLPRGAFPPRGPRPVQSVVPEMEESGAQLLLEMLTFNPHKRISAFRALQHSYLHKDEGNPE
T2 sequence (P24385 whole entry partner): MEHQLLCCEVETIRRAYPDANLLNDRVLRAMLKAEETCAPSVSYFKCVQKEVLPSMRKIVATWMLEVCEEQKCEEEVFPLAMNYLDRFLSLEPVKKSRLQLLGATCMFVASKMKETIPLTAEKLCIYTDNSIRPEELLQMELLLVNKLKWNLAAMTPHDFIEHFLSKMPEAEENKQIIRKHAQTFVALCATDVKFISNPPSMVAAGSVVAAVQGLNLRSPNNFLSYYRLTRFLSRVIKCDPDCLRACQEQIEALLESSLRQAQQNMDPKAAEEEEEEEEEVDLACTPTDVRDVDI
T3 sequence (P50750 whole entry): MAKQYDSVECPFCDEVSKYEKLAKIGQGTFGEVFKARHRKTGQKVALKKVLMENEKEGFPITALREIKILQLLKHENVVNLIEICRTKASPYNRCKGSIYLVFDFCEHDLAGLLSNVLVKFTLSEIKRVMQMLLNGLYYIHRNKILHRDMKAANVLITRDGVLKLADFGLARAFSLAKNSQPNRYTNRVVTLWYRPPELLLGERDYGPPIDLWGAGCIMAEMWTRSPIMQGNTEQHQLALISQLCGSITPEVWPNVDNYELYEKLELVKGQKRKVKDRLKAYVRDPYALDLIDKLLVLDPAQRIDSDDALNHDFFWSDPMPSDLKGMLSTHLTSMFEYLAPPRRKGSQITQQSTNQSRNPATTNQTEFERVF
T3 sequence (O60563 whole entry partner): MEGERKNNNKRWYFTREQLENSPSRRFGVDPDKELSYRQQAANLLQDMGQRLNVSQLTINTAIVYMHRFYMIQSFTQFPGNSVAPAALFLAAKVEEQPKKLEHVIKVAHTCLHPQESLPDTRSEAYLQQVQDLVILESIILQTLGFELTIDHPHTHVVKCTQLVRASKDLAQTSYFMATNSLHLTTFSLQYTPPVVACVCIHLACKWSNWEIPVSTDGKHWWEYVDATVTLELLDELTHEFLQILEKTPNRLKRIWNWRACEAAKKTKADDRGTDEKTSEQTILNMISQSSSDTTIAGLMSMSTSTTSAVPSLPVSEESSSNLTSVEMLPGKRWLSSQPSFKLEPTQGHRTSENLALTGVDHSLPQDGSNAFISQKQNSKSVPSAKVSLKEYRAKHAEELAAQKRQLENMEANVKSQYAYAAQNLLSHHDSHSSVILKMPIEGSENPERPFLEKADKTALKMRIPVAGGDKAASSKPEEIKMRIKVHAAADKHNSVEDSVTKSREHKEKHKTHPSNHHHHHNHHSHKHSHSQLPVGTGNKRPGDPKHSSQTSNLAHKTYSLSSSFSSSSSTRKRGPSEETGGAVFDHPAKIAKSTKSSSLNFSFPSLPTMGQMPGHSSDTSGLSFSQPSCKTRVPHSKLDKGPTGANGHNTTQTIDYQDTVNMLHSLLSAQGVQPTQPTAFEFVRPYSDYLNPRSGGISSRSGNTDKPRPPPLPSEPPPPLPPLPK

Regarding `CC(=O)N[C@@H]1CCC[C@H](C(=O)Nc2cc(-c3cccc4c3CC(C)(C)N4)c(Cl)cn2)C1` [Example 5, (1S,3R)-3-acetamido-N-(5-chloro-4-(2,2-dimethylindolin-4-yl)pyridin-2-yl)cyclohexane-1-carboxamide], the IC50 on CDK2/Cyclin A2 was over 1000 nM; on CDK4/Cyclin D1, 20 to 200 nM; on CDK9/Cyclin T1 it was under 20 nM; in the assay on H929 cells, 20 to 200 nM.
Regarding `Cc1cnc(NC(=O)[C@H]2CCC[C@@H](NC(=O)CC#N)C2)cc1-c1cccc2c1OCC(C)(C)N2` [Example 7, (1S,3R)-3-(2-cyanoacetamido)-N-(4-(3,3-dimethyl-3,4-dihydro-2H-benzo[b][1,4]oxazin-8-yl)-5-methylpyridin-2-yl)cyclohexane-1-carboxamide], the IC50 on CDK2/Cyclin A2 was over 1000 nM; on CDK4/Cyclin D1 it was over 1000 nM; at CDK9/Cyclin T1 it was 20 to 200 nM; in the assay on H929 cells, 200 to 1000 nM.
On to `Cc1cnc(NC(=O)[C@H]2CCC[C@@H](NC(=O)CC#N)C2)cc1-c1cccc2c1OCCN2` [Example 8, (1S,3R)-3-(2-cyanoacetamido)-N-(4-(3,4-dihydro-2H-benzo[b][1,4]oxazin-8-yl)-5-methylpyridin-2-yl)cyclohexane-1-carboxamide], for which the IC50 at CDK2/Cyclin A2 was over 1000 nM; at CDK4/Cyclin D1, over 1000 nM; at CDK9/Cyclin T1, 20 to 200 nM; in the assay with H929 cells it was 200 to 1000 nM.
